# Laboratory results taken from PubChem BioAssay AID2060885 (Molecular Pharmacology Branch, DTP, NCI, 2025).
# System: NCI-H23 complex spheroids with HUVEC/MSC, viability
# Test: Anticancer human tumor NCI-H23 cell line growth inhibition [RAS];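 further: spheroids exposed to compound for 7 days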;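 on viability, T/C: 100% = DMSO vehicle control viability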
# Conditions: for IC50: curve of first compound; for viability, T/C: stronger effect = lower value
# How it was run: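 Tumour cells grown as complex spheroids with HUVEC endothelial cells and mesenchymal stem cells, treated with RAS pathway inhibitor combinations. Each agent spans half-log steps from near clinical Cmax, or 10 microM where Cmax is unknown.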
smiles,measurement,setting,value
C=CC(=O)Nc1cc(Nc2nccc(-c3cn(C)c4ccccc34)n2)c(OC)cc1N(C)CCN(C)C + C=CC(=O)N1CCN(c2nc(OCC3CCCN3C)nc3c(F)c(-c4nc(N)cc(C)c4C(F)(F)F)c(Cl)cc23)C(C)C1,IC50,second compound 0.00316 µM,1000 nM
same,IC50,second compound 0.01 µM,7.6 nM
same,IC50,second compound 0.0316 µM,3.62 nM
same,IC50,second compound 0.1 µM,< 3.16 nM
same,IC50,second compound 0.316 µM,< 3.16 nM
same,IC50,second compound 1 µM,< 3.16 nM
same,"viability, T/C","second compound 0.00316 µM, first compound 0.00316 µM",66.1%
same,"viability, T/C","second compound 0.00316 µM, first compound 0.01 µM",83.2%
same,"viability, T/C","second compound 0.00316 µM, first compound 0.0316 µM",56.1%
same,"viability, T/C","second compound 0.00316 µM, first compound 0.1 µM",53.5%
same,"viability, T/C","second compound 0.00316 µM, first compound 0.316 µM",57.2%
same,"viability, T/C","second compound 0.00316 µM, first compound 1 µM",49.6%
same,"viability, T/C","second compound 0.01 µM, first compound 0.00316 µM",51.5%
same,"viability, T/C","second compound 0.01 µM, first compound 0.01 µM",52.9%
same,"viability, T/C","second compound 0.01 µM, first compound 0.0316 µM",45.1%
same,"viability, T/C","second compound 0.01 µM, first compound 0.1 µM",36.9%
same,"viability, T/C","second compound 0.01 µM, first compound 0.316 µM",43.1%
same,"viability, T/C","second compound 0.01 µM, first compound 1 µM",37.1%
same,"viability, T/C","second compound 0.0316 µM, first compound 0.00316 µM",49.4%
same,"viability, T/C","second compound 0.0316 µM, first compound 0.01 µM",48.3%
same,"viability, T/C","second compound 0.0316 µM, first compound 0.0316 µM",40.4%
same,"viability, T/C","second compound 0.0316 µM, first compound 0.1 µM",35.2%
same,"viability, T/C","second compound 0.0316 µM, first compound 0.316 µM",37.1%
same,"viability, T/C","second compound 0.0316 µM, first compound 1 µM",33.6%
same,"viability, T/C","second compound 0.1 µM, first compound 0.00316 µM",45%
same,"viability, T/C","second compound 0.1 µM, first compound 0.01 µM",39.4%
same,"viability, T/C","second compound 0.1 µM, first compound 0.0316 µM",33.8%
same,"viability, T/C","second compound 0.1 µM, first compound 0.1 µM",34.4%
same,"viability, T/C","second compound 0.1 µM, first compound 0.316 µM",29.6%
same,"viability, T/C","second compound 0.1 µM, first compound 1 µM",27.3%
same,"viability, T/C","second compound 0.316 µM, first compound 0.00316 µM",44.7%
same,"viability, T/C","second compound 0.316 µM, first compound 0.01 µM",43%
same,"viability, T/C","second compound 0.316 µM, first compound 0.0316 µM",34%
same,"viability, T/C","second compound 0.316 µM, first compound 0.1 µM",32%
same,"viability, T/C","second compound 0.316 µM, first compound 0.316 µM",29.4%
same,"viability, T/C","second compound 0.316 µM, first compound 1 µM",35.5%
same,"viability, T/C","second compound 1 µM, first compound 0.00316 µM",39.2%
same,"viability, T/C","second compound 1 µM, first compound 0.01 µM",41.5%
same,"viability, T/C","second compound 1 µM, first compound 0.0316 µM",36.9%
same,"viability, T/C","second compound 1 µM, first compound 0.1 µM",34.9%
same,"viability, T/C","second compound 1 µM, first compound 0.316 µM",30.9%
same,"viability, T/C","second compound 1 µM, first compound 1 µM",28.3%
CC1(C)CCC(Nc2ncc(C(F)(F)F)c(-c3c[nH]c4c(P(C)(C)=O)c(C#N)ccc34)n2)CN1 (centres undefined) + CCn1c(-c2cc(N3CCN(C)CC3)cnc2C(C)OC)c2c3cc(ccc31)-c1csc(n1)CC(NC(=O)C1CC1C)C(=O)N1CCCC(N1)C(=O)OCC(C)(C)C2,IC50,second compound 0.000949 µM,< 0.949 nM
same,IC50,second compound 0.003 µM,< 0.949 nM
same,IC50,second compound 0.00949 µM,< 0.949 nM
same,IC50,second compound 0.03 µM,< 0.949 nM
same,IC50,second compound 0.0949 µM,< 0.949 nM
same,IC50,second compound 0.3 µM,< 0.949 nM
same,"viability, T/C","second compound 0.000949 µM, first compound 0.000949 µM",33.9%
same,"viability, T/C","second compound 0.000949 µM, first compound 0.003 µM",29.4%
same,"viability, T/C","second compound 0.000949 µM, first compound 0.00949 µM",21.1%
same,"viability, T/C","second compound 0.000949 µM, first compound 0.03 µM",26.6%
same,"viability, T/C","second compound 0.000949 µM, first compound 0.0949 µM",21%
same,"viability, T/C","second compound 0.000949 µM, first compound 0.3 µM",14.5%
same,"viability, T/C","second compound 0.003 µM, first compound 0.000949 µM",26.6%
same,"viability, T/C","second compound 0.003 µM, first compound 0.003 µM",21.2%
same,"viability, T/C","second compound 0.003 µM, first compound 0.00949 µM",16.8%
same,"viability, T/C","second compound 0.003 µM, first compound 0.03 µM",18.4%
same,"viability, T/C","second compound 0.003 µM, first compound 0.0949 µM",16.7%
same,"viability, T/C","second compound 0.003 µM, first compound 0.3 µM",12.2%
same,"viability, T/C","second compound 0.00949 µM, first compound 0.000949 µM",21.4%
same,"viability, T/C","second compound 0.00949 µM, first compound 0.003 µM",16.8%
same,"viability, T/C","second compound 0.00949 µM, first compound 0.00949 µM",16.1%
same,"viability, T/C","second compound 0.00949 µM, first compound 0.03 µM",15.9%
same,"viability, T/C","second compound 0.00949 µM, first compound 0.0949 µM",12.8%
same,"viability, T/C","second compound 0.00949 µM, first compound 0.3 µM",11.8%
same,"viability, T/C","second compound 0.03 µM, first compound 0.000949 µM",17.6%
same,"viability, T/C","second compound 0.03 µM, first compound 0.003 µM",14.4%
same,"viability, T/C","second compound 0.03 µM, first compound 0.00949 µM",13.4%
same,"viability, T/C","second compound 0.03 µM, first compound 0.03 µM",12.8%
same,"viability, T/C","second compound 0.03 µM, first compound 0.0949 µM",10.5%
same,"viability, T/C","second compound 0.03 µM, first compound 0.3 µM",12.6%
same,"viability, T/C","second compound 0.0949 µM, first compound 0.000949 µM",15%
same,"viability, T/C","second compound 0.0949 µM, first compound 0.003 µM",13.5%
same,"viability, T/C","second compound 0.0949 µM, first compound 0.00949 µM",10.5%
same,"viability, T/C","second compound 0.0949 µM, first compound 0.03 µM",10.9%
same,"viability, T/C","second compound 0.0949 µM, first compound 0.0949 µM",9.11%
same,"viability, T/C","second compound 0.0949 µM, first compound 0.3 µM",10.1%
same,"viability, T/C","second compound 0.3 µM, first compound 0.000949 µM",13.1%
same,"viability, T/C","second compound 0.3 µM, first compound 0.003 µM",10.8%
same,"viability, T/C","second compound 0.3 µM, first compound 0.00949 µM",10.7%
same,"viability, T/C","second compound 0.3 µM, first compound 0.03 µM",9.9%
same,"viability, T/C","second compound 0.3 µM, first compound 0.0949 µM",9.8%
same,"viability, T/C","second compound 0.3 µM, first compound 0.3 µM",9.04%
